Data: article PMC12169615, “Fluorescent 4‑Nitrobenzo-2-oxa-1,3-diazole-Coupled Bile Acids as Probe Substrates of Hepatic and Intestinal Bile Acid Transporters of the Solute Carrier Families SLC10 and SLCO” (Journal of Medicinal Chemistry, 2025)

Key:
[1] = target: T1, mouse mNtcp (Mus musculus, UniProt O08705); test: Transport kinetics of conjugated 3-NBD-BA (concentration-dependent uptake); format: cell-based; details: mNtcp-HEK293, 10 min uptake, 37 °C, specific (Na+-dependent) uptake
T1 construct: stably transfected with the full open reading frames of human NTCP, ASBT, SOAT, OATP1B1, and OATP1B3 as well as mouse mNtcp and mAsbt; expressed in transfected cells
T1 sequence (O08705 1-362): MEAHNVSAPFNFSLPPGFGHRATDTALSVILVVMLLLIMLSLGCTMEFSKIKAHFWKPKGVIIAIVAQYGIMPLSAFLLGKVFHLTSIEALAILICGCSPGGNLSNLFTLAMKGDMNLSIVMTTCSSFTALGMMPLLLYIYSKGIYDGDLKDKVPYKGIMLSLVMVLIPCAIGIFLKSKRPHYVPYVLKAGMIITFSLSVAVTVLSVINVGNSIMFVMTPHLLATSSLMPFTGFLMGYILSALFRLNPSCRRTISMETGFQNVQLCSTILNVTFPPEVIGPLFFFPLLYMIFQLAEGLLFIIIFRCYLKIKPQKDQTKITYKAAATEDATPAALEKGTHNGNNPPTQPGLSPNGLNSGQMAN
Method: (§1) In a first step, the time-dependent transport of all conjugated NBD-BA was analyzed. […] Based on these findings, an uptake phase of 10 min was selected as the most practical for subsequent kinetic transport measurements. […] In contrast, for ASBT, reliable carrier-specific concentration-dependent transport rates and K m values could only be determined for 3α-NBD-GCA (16d). The transport rates for 3β-NBD-TCA (14a), 3β-NBD-TCDCA (14b), 3β-NBD-GCA (16a), and 3α-NBD-TCA (14d) were at ≤ 2 across the entire concentration range and were therefore not considered biologically meaningful.
(§2) 6 NTCP and mNtcp transport kinetics for conjugated 3-NBD-BA. Concentration-dependent uptake of the indicated NBD-coupled BA was analyzed in HEK293 cells stably expressing human NTCP or mouse mNtcp at increasing substrate concentrations. Control experiments were performed in the absence of sodium (-Na^+). Uptake was analyzed for 10 min at 37 °C with transport buffer containing the indicated 3-NBD-BA. Afterward, the transport medium was removed, and each cell monolayer was washed and processed for fluorescence detection. Specific uptake was calculated by subtracting the nonspecific uptake in the absence of sodium (-Na^+, open symbols) from the uptake in the presence of sodium (+Na^+, closed symbols) and is shown by dotted lines. Values represent means ± SD of quadruplicate determinations. Michaelis Menten K m values were calculated by nonlinear regression analysis based on the specific uptake data.

[2] = target: T2, human NTCP (Homo sapiens, UniProt Q14973); test: Fluorescence microscopy screening of cellular uptake of 3-NBD-BA; format: cell-based; details: 50 μM, 10 min, +Na+ vs -Na+
T2 construct: HEK293 cell lines stably transfected with the full open reading frames of human NTCP; expressed in transfected cells
T2 sequence (Q14973 1-349): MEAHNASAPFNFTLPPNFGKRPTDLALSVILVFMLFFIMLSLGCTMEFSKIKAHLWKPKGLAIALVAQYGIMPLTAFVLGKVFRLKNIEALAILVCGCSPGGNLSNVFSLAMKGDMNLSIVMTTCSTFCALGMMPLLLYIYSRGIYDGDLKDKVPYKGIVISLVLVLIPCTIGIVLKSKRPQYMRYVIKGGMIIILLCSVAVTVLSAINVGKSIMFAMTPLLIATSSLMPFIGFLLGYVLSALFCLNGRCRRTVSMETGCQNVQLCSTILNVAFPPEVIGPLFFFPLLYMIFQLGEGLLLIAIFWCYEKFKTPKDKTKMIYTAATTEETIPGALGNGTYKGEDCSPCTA
Method: (§3) Then, all cell lines were cultivated in chamber slides and were grown to confluence to screen for carrier-mediated cellular accumulation of the synthesized NBD-BA. Incubation with the NBD-BA was done in the presence of sodium (+Na^+) as well as in the absence of sodium (-Na^+, negative control) for all SLC10 carriers, namely NTCP, ASBT, mNtcp, mAsbt, and SOAT. For OATP1B1 and OATP1B3, nontransfected HEK293 cells were used as negative control.
(§4) 4 Screening of the cellular uptake of 3-NBD-BA in HEK293 (HEK) cells stably expressing the human carriers NTCP, ASBT, SOAT, OATP1B1, and OATP1B3, or the mouse carriers mNtcp and mAsbt. For the SLC10 carriers, sodium-free conditions (-Na^+) were used as control. For the OATPs, experiments in non-carrier-expressing HEK293 cells (HEK) served as control. All cell lines were incubated for 10 min with the indicated 3-NBD-BA at 50 μM concentration. Then, cells were washed with PBS and subjected to fluorescence microscopy. Identical microscope settings were used for all images. Scale bar: 75 μm.

[3] = target: T1, mouse mNtcp; test: as above; format: cell-based; details: 50 μM, 10 min, +Na+ vs -Na+
Method: as §3, §4

[4] = design: method as in not given; details: ref not given, cited from earlier work
[5] = target: T3, human ASBT (Homo sapiens, UniProt Q12908); test: Transport kinetics of conjugated 3-NBD-BA (concentration-dependent uptake); format: cell-based; design: stably transfected with the full open reading frames of human NTCP, ASBT, SOAT, OATP1B1, and OATP1B3; expressed in transfected cells; details: for Transport rates via ASBT across the entire concentration range: ASBT-HEK293, 10 min, +Na+ vs -Na+, not considered biologically meaningful
T3 sequence (Q12908 1-348): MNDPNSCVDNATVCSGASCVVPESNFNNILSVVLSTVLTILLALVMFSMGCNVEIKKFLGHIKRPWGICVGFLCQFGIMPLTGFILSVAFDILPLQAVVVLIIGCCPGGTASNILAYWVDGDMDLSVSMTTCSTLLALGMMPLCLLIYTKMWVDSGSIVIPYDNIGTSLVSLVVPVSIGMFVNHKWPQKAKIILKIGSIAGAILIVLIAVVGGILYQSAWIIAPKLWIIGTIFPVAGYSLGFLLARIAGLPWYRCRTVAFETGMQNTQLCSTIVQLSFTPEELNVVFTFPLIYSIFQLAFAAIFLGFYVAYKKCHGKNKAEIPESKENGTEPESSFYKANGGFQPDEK
Method: as §1
as §2, with “7 ASBT” for “6 NTCP”, “mAsbt” for “mNtcp”, “ASBT” for “NTCP”, “data. For ASBT, reliable specific uptake data could only be determined for 3α-NBD-GCA (16d).” for “data.”

SMILES | K m mNtcp [1] | Cellular NBD-fluorescence, NTCP-HEK293 (microscopy) [2] | Cellular NBD-fluorescence, mNtcp-HEK293 (microscopy) [3] | Amount injected recovered in the bile ([4]; in situ liver perfusion, injected into the mesenterial vein, within 30 min) | Transport rates via ASBT across the entire concentration range [5] | Fate in the liver (metabolism, secretion into bile) ([4]; in situ liver perfusion with bile duct cannulation) | K m ASBT ([5]; ASBT-HEK293, 10 min uptake, 37 °C, specific (Na+-dependent) uptake)
C[C@H](CCC(=O)NCCS(=O)(=O)[O-])[C@H]1CC[C@H]2[C@@H]3[C@H](O)C[C@@H]4C[C@@H](Nc5ccc([N+](=O)[O-])c6nonc56)CC[C@]4(C)[C@H]3C[C@H](O)[C@]12C.[Na+] [14a] | 20.6 µM | significant increase in cellular NBD-fluorescence compared to the negative control | significant increase in cellular NBD-fluorescence compared to the negative control | 95% | ≤ 2 |  | 
C[C@H](CCC(=O)NCCS(=O)(=O)[O-])[C@H]1CC[C@H]2[C@@H]3[C@H](O)C[C@@H]4C[C@H](Nc5ccc([N+](=O)[O-])c6nonc56)CC[C@]4(C)[C@H]3C[C@H](O)[C@]12C.[Na+] [14d] | 9.5 µM | significant increase in cellular NBD-fluorescence compared to the negative control | significant increase in cellular NBD-fluorescence compared to the negative control |  | ≤ 2 | completely transformed within the liver cells to a polar fluorescent metabolite that showed sparse secretion into bile | 
C[C@H](CCC(=O)NCC(=O)O)[C@H]1CC[C@H]2[C@@H]3[C@H](O)C[C@@H]4C[C@@H](Nc5ccc([N+](=O)[O-])c6nonc56)CC[C@]4(C)[C@H]3C[C@H](O)[C@]12C [16a] | 17.2 µM | significant increase in cellular NBD-fluorescence compared to the negative control | significant increase in cellular NBD-fluorescence compared to the negative control |  | ≤ 2 |  | 
C[C@H](CCC(=O)NCC(=O)O)[C@H]1CC[C@H]2[C@@H]3[C@H](O)C[C@@H]4C[C@H](Nc5ccc([N+](=O)[O-])c6nonc56)CC[C@]4(C)[C@H]3C[C@H](O)[C@]12C [16d] | 5.2 µM | significant increase in cellular NBD-fluorescence compared to the negative control | significant increase in cellular NBD-fluorescence compared to the negative control |  |  |  | 14.5 µM
